Results: patent US12590099B2, “Inhibitors of histone deacetylase useful for the treatment or prevention of HIV infection” (Merck Sharp & Dohme LLC, priority 2018, dated 2026)
Where two headings read alike, the source gives them in different places.

How the values were obtained:
KARN cells (Jurkat 2C4) = test: cells; type: cell-based; settings: Homo sapiens, Jurkat
In short: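 Luminescence (Steady-Glo, 10 min, room temperature) measured next day in KARN Jurkat 2C4 cells given compounds at up to 40 μM final with 0.4% DMSO. Percent activation normalised to DMSO (0%) and 2 μM SAHA (100%), fitted by 4-parameter curve.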

Recombinant human HDAC8 = target: T1, Recombinant human HDAC8 (Homo sapiens, UniProt Q9BY41); test: Human HDAC enzyme inhibitor Fluor-de-Lys assay, HDAC8; type: biochemical
T1 construct: purchased Enzo Life Sciences BML-SE145-0100
T1 sequence (Q9BY41 1-377): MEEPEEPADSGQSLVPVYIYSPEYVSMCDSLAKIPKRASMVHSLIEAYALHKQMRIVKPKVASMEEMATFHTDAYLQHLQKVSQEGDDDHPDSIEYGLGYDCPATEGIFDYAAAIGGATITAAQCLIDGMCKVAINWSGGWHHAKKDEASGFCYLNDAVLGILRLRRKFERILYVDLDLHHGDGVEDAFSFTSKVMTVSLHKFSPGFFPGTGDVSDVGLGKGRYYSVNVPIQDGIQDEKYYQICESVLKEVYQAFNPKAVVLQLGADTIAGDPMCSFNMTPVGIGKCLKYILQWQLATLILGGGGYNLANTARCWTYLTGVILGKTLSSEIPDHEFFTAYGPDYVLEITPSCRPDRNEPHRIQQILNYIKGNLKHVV

[1] = target: T2, Recombinant human HDAC3/SMRT heterodimer (Homo sapiens, UniProt O15379); test: Human HDAC enzyme inhibitor Fluor-de-Lys assay, HDAC3/SMRT; type: biochemical
T2 construct: FLAG (C); made in house

[2] = read-out: Karn EC50 (nM) 0.1% NHS, 0.1% normal human serum
[3] = read-out: Karn EC50 (nM) 5% NHS, 5% normal human serum

T2 sequence (O15379 whole entry): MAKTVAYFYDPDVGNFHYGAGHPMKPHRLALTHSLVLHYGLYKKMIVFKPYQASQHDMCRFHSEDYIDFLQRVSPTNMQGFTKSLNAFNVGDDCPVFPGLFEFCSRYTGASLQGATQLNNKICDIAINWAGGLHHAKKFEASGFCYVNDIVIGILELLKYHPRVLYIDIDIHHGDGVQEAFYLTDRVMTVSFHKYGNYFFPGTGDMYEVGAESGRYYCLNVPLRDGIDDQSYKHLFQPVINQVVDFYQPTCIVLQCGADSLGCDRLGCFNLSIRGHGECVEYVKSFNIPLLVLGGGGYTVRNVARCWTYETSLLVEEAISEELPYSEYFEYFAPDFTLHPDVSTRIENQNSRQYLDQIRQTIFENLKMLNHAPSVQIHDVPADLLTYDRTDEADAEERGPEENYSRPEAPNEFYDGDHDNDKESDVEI
T2 sequence (Q9Y618 1-899 partner limits assumed): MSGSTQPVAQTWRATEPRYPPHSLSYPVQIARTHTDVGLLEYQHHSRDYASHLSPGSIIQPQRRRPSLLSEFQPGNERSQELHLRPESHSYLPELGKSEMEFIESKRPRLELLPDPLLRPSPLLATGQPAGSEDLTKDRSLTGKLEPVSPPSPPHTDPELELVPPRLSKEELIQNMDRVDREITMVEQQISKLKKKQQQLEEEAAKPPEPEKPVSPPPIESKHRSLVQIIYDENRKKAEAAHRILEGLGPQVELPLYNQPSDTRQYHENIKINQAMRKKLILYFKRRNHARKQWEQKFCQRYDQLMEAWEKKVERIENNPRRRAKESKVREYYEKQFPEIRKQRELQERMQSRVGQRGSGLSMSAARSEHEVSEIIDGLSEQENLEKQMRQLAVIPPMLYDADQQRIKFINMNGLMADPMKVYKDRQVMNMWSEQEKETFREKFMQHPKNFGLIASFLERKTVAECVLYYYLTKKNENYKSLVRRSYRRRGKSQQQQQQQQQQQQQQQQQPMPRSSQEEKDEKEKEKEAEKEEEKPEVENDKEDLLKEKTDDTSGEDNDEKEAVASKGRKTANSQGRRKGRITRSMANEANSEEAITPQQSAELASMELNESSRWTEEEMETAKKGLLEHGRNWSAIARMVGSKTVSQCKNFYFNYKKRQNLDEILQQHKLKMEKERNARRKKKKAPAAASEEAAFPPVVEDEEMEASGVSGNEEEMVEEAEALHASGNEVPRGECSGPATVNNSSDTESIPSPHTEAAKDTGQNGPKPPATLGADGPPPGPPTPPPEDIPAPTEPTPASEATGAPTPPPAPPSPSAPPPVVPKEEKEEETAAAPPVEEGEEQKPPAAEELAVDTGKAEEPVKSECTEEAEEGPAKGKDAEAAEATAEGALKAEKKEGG

Row | Compound | EC50 (KARN cells (Jurkat 2C4); [2]) [nM] | EC50 (KARN cells (Jurkat 2C4); [3]) [nM] | IC50 (Recombinant human HDAC8) [nM] | IC50 [1] [nM]
1 | COc1cc2nc(C)ccc2cc1-c1cnc([C@H](CCCCCC(=O)CC2CC2)NC(=O)[C@H]2CC23CCN(C)CC3)o1 [Compound 195, (1S)—N-{(1S)-8-cyclopropyl-1-[5-(7-methoxy-2-methylquinolin-6-yl)-1,3-oxazol-2-yl]-7-oxooctyl}-6-methyl-6-azaspiro[2.5]octane-1-carboxamide] | 163 | 216 | 7860 | 1.71
2 | CCC(=O)CCCCC[C@H](NC(=O)C1=NOC2(CCN(C)CC2)C1)c1ncc(-c2cc3ccc(C)nc3cc2OC)o1 [Compound 196] | 154 | 162 | > 900 | 0.73
3 | CCC(=O)CCCCC[C@H](NC(=O)[C@H]1CC12CCN(C)CC2)c1ncc(-c2cc3ccc(=O)n(C)c3cc2OC)o1 [Compound 198] | 147 | 176 | > 900 | 0.65
4 | CCN1CCC2(CC1)C[C@@H]2C(=O)N[C@@H](CCCCCC(=O)CC1CC1)c1ncc(-c2ccc(F)cc2)[nH]1 [Compound 201] | 359 | 403 | 14200 | 8.06
5 | CCC(=O)CCCCC[C@H](NC(=O)C1=NOC2(CCN(CC)CC2)C1)c1ncc(-c2cc3ccc(C)nc3cc2OC)o1 [Compound 204] | 165 | 152 | > 900 | 0.7
6 | CCC(=O)CCCCC[C@H](NC(=O)C1=NOC2(CCN(CC)CC2)C1)c1ncc(-c2cc3ccc(C)nc3cc2OC)[nH]1 [Compound 207] | 55 | 58 | 1590 | 0.36
7 | CCC(=O)CCCCC[C@H](N)c1ncc(-c2cc3ccc(C)nc3cc2OC)[nH]1 [Compound 209, (S)-9-amino-9-(5-(7-methoxy-2-methylquinolin-6-yl)-1H-imidazol-2-yl)nonan-3-one] | 1440 | 4950 | 144 | 21.6
8 | CCC(=O)CCCCC[C@H](NC(=O)[C@H]1CC12CCN(CC)CC2)c1nc(-c2cc3ccc(C)nc3cc2OC)cn1COC(=O)C(C)(C)C [Compound 215, {2-[(1S)-1-({[(1S)-6-ethyl-6-azaspiro[2.5]oct-1-yl]carbonyl}amino)-7-oxononyl]-4-(7-methoxy-2-methylquinolin-6-yl)-1H-imidazol-1-yl}methyl 2,2-dimethylpropanoate] | 93 | 93 | > 900 | 1.15
9 | CCC(=O)CCCCC[C@H](NC(=O)C1=NOC2(CCN(C)CC2)C1)c1ncc(-c2cc3ccncc3nc2OC)o1 [Compound 216] | 194 | 278 | > 900 | 13.5
10 | CCC(=O)CCCCC[C@H](NCCN(C)C)c1ncc(-c2cc3ccc(C)nc3cc2OC)[nH]1 [Compound 217, (9S)-9-{[2-(dimethylamino)ethyl]amino}-9-[5-(7-methoxy-2-methylquinolin-6-yl)-1H-imidazol-2-yl]nonan-3-one] | 576 | 518 | > 900 | 10.9
11 | CCC(=O)CCCCC[C@H](NC(=O)C1=NOC2(CCN(CC3CC3)CC2)C1)c1ncc(-c2cc3ccc(C)nc3cc2OC)[nH]1 [Compound 219] | 78 | 101 | > 900 | 0.34
12 | CCC(=O)CCCCC[C@H](NC(=O)[C@H]1CC12CCN(C)CC2)c1ncc(-c2cc(OC)ncc2F)o1 [Compound 220] | 3810 | 3930 | > 900 | 33.5
13 | CCC(=O)CCCCC[C@H](NC(=O)C1=NOC2(CCN(C)CC2)C1)c1ncc(-c2cc3ccc(C)nc3cc2F)o1 [Compound 221] | 344 | 581 | > 900 | 13.6
